Data from article PMC9105517, “Biological Activities of Lichen-Derived Monoaromatic Compounds” (Molecules, 2022).
Converted amounts (≈) assume the structure as drawn. Read-outs that look alike come from different tables or passages of the source.

Legend:
[1] = biological target: T1, Saccharomyces cerevisiae α-glucosidase (E.C 3.2.1.20) (Saccharomyces cerevisiae, UniProt P53341); assay: biochemical
T1 construct: purchased Sigma Aldrich Co (Saint Louis, MO, USA)
Experimental: The alpha-glucosidase (0.2 U/mL) and substrate (5.0 mM pNPG) were dissolved in 100 mM pH 6.9 sodium phosphate buffer. The inhibitor (50 µL) was preincubated with alpha-glucosidase at 37 °C for 20 min, and the substrate (40 µL) was subsequently added to the reaction mixture. The enzymatic reaction was conducted at 37 °C for 20 min and ended by adding 0.2 M Na2CO3 (130 μL). Enzymatic activity was quantitatively measured at an absorbance of 405 nm (CLARIOstar plus, BMG LABTECH, Ortenberg, Germany). All samples were analyzed in triplicate at five different concentrations around the IC50 values, and the mean values were retained. The following equation was used to calculate the inhibition percentage (%): Inhibition (%) = [1 − (Asample/Acontrol)] × 100.

[2] = system: various microorganisms; set-up: method as in doi:10.1007/s11101-010-9201-1, PMID 12487331; settings: cited from earlier work
[3] = system: Staphylococcus aureus; assay: Minimum inhibitory concentration by agar dilution method; assay type: cell-based; settings: 37 °C, 16–18 h
Experimental: The agar well diffusion method was utilized to investigate the antibacterial activity of the isolated compounds on antibiotic-resistant, pathogenic bacteria E. faecium, S. aureus, and A. baumannii. Three bacterial pathogens were cultured in nutrient broth at 37 °C for 18 h. The cultures were diluted with sterile 0.9% NaCl to obtain bacterial solutions of 1.5 × 10^8 CFU/mL. This solution with a volume of 100 μL was spread on a Mueller-Hinton agar plate. Holes with a diameter of 8 mm were punched aseptically to create wells on the surface of the Mueller–Hinton agar. The compounds were dissolved in DMSO. The amount of 50 µg of each compound solution was inserted into the wells. The plates were incubated at 37 °C for 16–18 h and the antibacterial activity of each compound was recorded by measuring the diameters of the inhibition zones surrounding the wells. The determination of the minimum inhibitory concentration of 9a against Staphylococcus aureus was performed by the agar dilution method. Compound 9a was dissolved in DMSO to the final concentration of 1 mg/mL and then diluted with Mueller–Hinton agar (MHA) to the concentration range of 0, 1, 2, 4, 8, 16, 32, 64 μg/mL as the final concentrations in MHA plates. S. aureus was cultured in nutrient broth at 37 °C overnight with shaking. […] The MIC value was recorded as the lowest concentration of 9a that inhibited the growth of S. aureus. […]

[4] = system: alpha-glucosidase; set-up: method as in doi:10.1007/s10600-021-03404-z, PMID 33656403, PMID 29968482, PMID 18981604; settings: cited from earlier work
[5] = system: Staphylococcus aureus; assay: Agar well diffusion antimicrobial assay; assay type: cell-based; settings: 8 mm wells
Experimental: (§1) The agar well diffusion method was utilized to investigate the antibacterial activity of the isolated compounds on antibiotic-resistant, pathogenic bacteria E. faecium, S. aureus, and A. baumannii. Three bacterial pathogens were cultured in nutrient broth at 37 °C for 18 h. The cultures were diluted with sterile 0.9% NaCl to obtain bacterial solutions of 1.5 × 10^8 CFU/mL. This solution with a volume of 100 μL was spread on a Mueller-Hinton agar plate. Holes with a diameter of 8 mm were punched aseptically to create wells on the surface of the Mueller–Hinton agar. The compounds were dissolved in DMSO. The amount of 50 µg of each compound solution was inserted into the wells. The plates were incubated at 37 °C for 16–18 h and the antibacterial activity of each compound was recorded by measuring the diameters of the inhibition zones surrounding the wells. The determination of the minimum inhibitory concentration of 9a against Staphylococcus aureus was performed by the agar dilution method. Compound 9a was dissolved in DMSO to the final concentration of 1 mg/mL and then diluted with Mueller–Hinton agar (MHA) to the concentration range of 0, 1, 2, 4, 8, 16, 32, 64 μg/mL as the final concentrations in MHA plates. S. aureus was cultured in nutrient broth at 37 °C overnight with shaking. […] 1 μL of the diluted bacterial solution (10^4 CFU) was placed on the surface of the MHA plates and the plates were incubated at 37 °C for 16–18 h. The MIC value was recorded as the lowest concentration of 9a that inhibited the growth of S. aureus. Kanamycin was chosen as the positive control in this experiment, while DMSO was regarded as a control.

[6] = system: Enterococcus faecium; assay: Agar well diffusion antimicrobial assay; assay type: cell-based; settings: 8 mm wells
Experimental: as §1

[7] = system: Acinetobacter baumannii; assay: Agar well diffusion antimicrobial assay; assay type: cell-based; settings: 8 mm wells
Experimental: as §1

[8] = system: S. aureus, Bacillus subtilis, Pseudomonas aeruginosa, Candida albicans, Escherichia coli, and Aspergillus niger; set-up: method as in PMID 3834834; settings: various microorganisms; cited from earlier work
[9] = in vitro, 37 °C, pH 6.9, triplicate, read-out: IC50, alpha-glucosidase inhibitory activity (converted)

T1 sequence (P53341 whole entry): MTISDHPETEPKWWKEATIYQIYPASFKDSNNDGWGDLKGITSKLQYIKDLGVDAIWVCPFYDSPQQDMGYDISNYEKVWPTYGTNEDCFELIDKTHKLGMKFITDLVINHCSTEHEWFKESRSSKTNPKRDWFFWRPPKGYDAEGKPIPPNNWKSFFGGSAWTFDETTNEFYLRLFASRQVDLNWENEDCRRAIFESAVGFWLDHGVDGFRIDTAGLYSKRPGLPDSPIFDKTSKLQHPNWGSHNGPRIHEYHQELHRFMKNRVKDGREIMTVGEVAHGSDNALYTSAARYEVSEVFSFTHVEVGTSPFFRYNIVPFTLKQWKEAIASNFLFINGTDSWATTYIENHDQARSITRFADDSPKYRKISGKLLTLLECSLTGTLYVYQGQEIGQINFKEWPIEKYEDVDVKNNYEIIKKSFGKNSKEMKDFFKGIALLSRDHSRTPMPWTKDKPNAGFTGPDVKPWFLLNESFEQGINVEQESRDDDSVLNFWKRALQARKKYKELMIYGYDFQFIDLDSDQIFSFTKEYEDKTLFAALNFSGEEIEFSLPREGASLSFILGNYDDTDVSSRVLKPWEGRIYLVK

Compound: COC(=O)c1cc(O)cc(O)c1 [Compound 2, 3,5-dihydroxybenzoate methyl]
- IC50 [1, 9]: 939 µM

Compound: Cc1cc(O)cc(O)c1C(=O)OCC(O)C(O)CO [Compound 10, D-montagnetol]
- IC50 [1]: > 1100 µM

Compound: Cc1cc(O)cc(O)c1 [orcinol]
- MIC [2]: 30 to 500 µg/mL

Compound: NC[C@H]1O[C@H](O[C@H]2[C@H](O)[C@@H](O[C@H]3O[C@H](CO)[C@@H](O)[C@H](N)[C@H]3O)[C@H](N)C[C@@H]2N)[C@H](O)[C@@H](O)[C@@H]1O [kanamycin, reference compound]
- MIC [3]: 4 µg/mL (≈ 8.26 µM)

Compound: COC(=O)c1c(C)cc(O)c(C=O)c1O [Compound 7, methyl hematommate]
- IC50 [1, 9]: 294 µM
- alpha-glucosidase inhibition (in words) [4]: potent activity

Compound: Cc1cc(O)c(O)c(O)c1 [Compound 5, 3-hydroxyorcinol]
- IC50 [1, 9]: 694 µM

Compound: Cc1c(Br)c(O)c(Br)c(O)c1C(=O)OCC(O)C(O)CO [Compound 10b, 3,5-dibromo-D-montagnetol]
- IC50 [1]: 301 µM

Compound: COC(=O)c1c(C)cc(O)cc1O [Compound 9, methyl orsellinate]
- IC50 [1]: > 1650 µM
- zone of inhibition at 50 µg/mL [5]: 13 mm
- MIC [2]: 30 to 500 µg/mL
- alpha-glucosidase inhibition (in words) [4]: weak inhibitors

Compound: Cc1cc(O)c(Br)c(O)c1C(=O)OCC(O)C(O)CO [Compound 10a, 3-bromo-D-montagnetol]
- IC50 [1]: 381 µM
- zone of inhibition at 50 µg/mL [6]: 13 mm

Compound: CN[C@@H]1[C@@H](O[C@H]2O[C@H](CO)[C@@H](N)[C@H](O)[C@H]2O)OC2C[C@@H](N)[C@@H](O[C@H]3[C@H](O)[C@@H](O)[C@H](N)C[C@@H]3N)OC2[C@@H]1O (some centres unmarked) [Apramycin, reference compound]
- zone of inhibition at 50 µg/mL [7]: 20 mm
- zone of inhibition at 50 µg/mL [6]: 21 mm
- zone of inhibition at 50 µg/mL [5]: 21 mm

Compound: CCOC(=O)c1c(C)cc(O)cc1O [ethyl orsellinate]
- MIC [2]: 30 to 500 µg/mL

Compound: Cc1c(O)cc(C(=O)O)cc1O [Compound 3, 3,5-dihydroxy-4-methylbenzoic acid]
- IC50 [1]: 143 µM

Compound: O=C(O)c1cc(O)cc(O)c1 [Compound 1, 3,5-dihydroxybenzoic acid]
- IC50 [1, 9]: 729 µM

Compound: cristiferide A
- alpha-glucosidase inhibition (in words) [4]: potent activity

Compound: Cc1cc(O)c(C=O)c(O)c1 [Compound 6, atranol]
- IC50 [1]: > 1970 µM

Compound: COC(=O)c1c(C)c(Br)c(O)c(Br)c1O [Compound 9a, methyl 3,5-dibromo-orsellinate]
- IC50 [1]: 459 µM
- zone of inhibition at 50 µg/mL [5]: 29 mm
- MIC ([3]; read-out: MIC): 4 µg/mL (≈ 11.8 µM)

Compound: COC(=O)c1c(C)c(Br)c(O)c(C)c1O [Compound 8a, methyl 5-bromo-β-orsellinate]
- IC50 [1]: 606 µM
- zone of inhibition at 50 µg/mL [5]: 12 mm

Compound: COC(=O)c1c(C)cc(O)c(C)c1O [Compound 8, methyl β-orsellinate]
- IC50 [1]: > 1530 µM
- zone of inhibition at 50 µg/mL [7]: 16 mm
- zone of inhibition at 50 µg/mL [6]: 13 mm
- zone of inhibition at 50 µg/mL [5]: 18 mm
- MIC [2]: 30 to 500 µg/mL
- MIC [8]: 80 to 160 µg/mL
- alpha-glucosidase inhibition (in words) [4]: weak inhibitors

Compound: COc1c(O)cc(C(=O)O)cc1O [Compound 4, 3,5-dihydroxy-4-methoxylbenzoic acid]
- IC50 [1, 9]: 929 µM
